CN(C)CCn1[nH]nnc1=S
Conditions | solubility (mole fraction)
in DMF, 293.45 K | 0.000803
in DMF, 298.34 K | 0.000875
in DMF, 303.35 K | 0.00105
in DMF, 308.38 K | 0.00122
in DMF, 313.25 K | 0.00146
in DMF, 318.22 K | 0.00179
in DMF, 323.2 K | 0.00212
in DMF, 328.12 K | 0.00253
in DMF, 333.3 K | 0.00297
in DMF, 338.22 K | 0.00335
in DMF, 345.15 K | 0.00393
in ethanol, 293.25 K | 5.34e-05
in ethanol, 298.15 K | 6.16e-05
in ethanol, 302.95 K | 7.31e-05
in ethanol, 308.1 K | 8.48e-05
in ethanol, 312.94 K | 9.91e-05
in ethanol, 318.15 K | 0.000118
in ethanol, 322.55 K | 0.000133
in ethanol, 327.45 K | 0.000156
in ethanol, 332.55 K | 0.000181
in ethanol, 338.05 K | 0.000206
in ethanol, 342.2 K | 0.000227
in isopropanol, 293.15 K | 3.47e-05
in isopropanol, 298.28 K | 4.15e-05
in isopropanol, 303.35 K | 4.8e-05
in isopropanol, 308.14 K | 5.43e-05
in isopropanol, 313.25 K | 6.15e-05
in isopropanol, 318.2 K | 6.96e-05
in isopropanol, 323.25 K | 7.96e-05
in isopropanol, 328.16 K | 9.09e-05
in isopropanol, 333.35 K | 0.000106
in isopropanol, 338.32 K | 0.000123
in isopropanol, 343.45 K | 0.000144
in methanol, 293.05 K | 0.000156
in methanol, 298.17 K | 0.000186
in methanol, 303.15 K | 0.000219
in methanol, 308.2 K | 0.000254
in methanol, 313.05 K | 0.000291
in methanol, 318.24 K | 0.000348
in methanol, 323.25 K | 0.000414
in methanol, 328.23 K | 0.000485
in methanol, 333.15 K | 0.000571
in n-butanol, 293.15 K | 6.11e-05
in n-butanol, 298.21 K | 6.93e-05
in n-butanol, 303.35 K | 7.66e-05
in n-butanol, 308.14 K | 8.49e-05
in n-butanol, 313.05 K | 9.47e-05
in n-butanol, 318.28 K | 0.000103
in n-butanol, 323 K | 0.000112
in n-butanol, 328.14 K | 0.000126
in n-butanol, 333.05 K | 0.000141
in n-butanol, 338.12 K | 0.000158
in n-butanol, 343.1 K | 0.000179
in n-propanol, 293.17 K | 5.79e-05
in n-propanol, 298.14 K | 7.34e-05
in n-propanol, 303.25 K | 8.52e-05
in n-propanol, 308.12 K | 0.000107
in n-propanol, 313.15 K | 0.000127
in n-propanol, 318.23 K | 0.00014
in n-propanol, 323.2 K | 0.000161
in n-propanol, 328.34 K | 0.000176
in n-propanol, 332.95 K | 0.000189
in n-propanol, 338.18 K | 0.000216
in n-propanol, 343.16 K | 0.000241
in sec-butanol, 293.35 K | 3.16e-05
in sec-butanol, 298.37 K | 3.49e-05
in sec-butanol, 303.25 K | 4.12e-05
in sec-butanol, 308.24 K | 4.36e-05
in sec-butanol, 313.15 K | 4.84e-05
in sec-butanol, 318.12 K | 6.19e-05
in sec-butanol, 323 K | 7.52e-05
in sec-butanol, 327.33 K | 9.18e-05
in sec-butanol, 330.85 K | 0.00011
in sec-butanol, 335.57 K | 0.000133
in sec-butanol, 340.5 K | 0.000165
in water, 293.15 K | 0.00421
in water, 298.12 K | 0.00516
in water, 303.15 K | 0.00636
in water, 308.22 K | 0.008
in water, 313.35 K | 0.0101
in water, 318.28 K | 0.0127
in water, 323.35 K | 0.0161
in water, 328.24 K | 0.0199
in water, 333.35 K | 0.0246
in water, 338.21 K | 0.0303
in water, 343.3 K | 0.0371
